# Data published in paper PMC12479633, “A Phase IIa, Single-Blind, Placebo-Controlled, Parallel-Group Study to Assess Safety, Tolerability, and Pharmacokinetics/Pharmacodynamics of Brensocatib in Adults with Cystic Fibrosis” (Clinical Pharmacokinetics, 2025).
# Several values for one entry are separate records, joined by “and”; a condition that tells them apart may be missing. Equal entries are not always repeated. Where two headings read alike, the source gives them in different places.
# Experiments:
# [1] = Plasma pharmacokinetics of brensocatib in adults with CF, once-daily oral dosing for 28 days (noncompartmental analysis); type: in vivo, human; conditions: human, plasma, oral
# Description: This was a phase IIa, single-blind, randomized, placebo-controlled trial with a parallel-group, multiple-dose design aimed at evaluating the PK, PD, safety, and tolerability of brensocatib in adults with CF (NCT05090904).
# Participants were assigned to receive a once-daily dose of brensocatib (10 mg, 25 mg, or 40 mg) or placebo for 28 days.
# Plasma PK samples were collected on days 1 (at predose and 0.5, 1, 2, 4, 6, 8, and 24 h postdose), 14 (at predose and 2 h postdose), and 28 (at predose and 0.5, 1, 2, 4, 6, 8, 24, and 168 h postdose). The concentration of brensocatib in the plasma samples was analyzed using a validated liquid chromatography with tandem mass spectrometry method at an external service provider with a quantification range of 0.25–150 ng/mL. The overall intra- and inter-batch precision and accuracy were −2.7 to 2.0% and −1.8 to 0.8%, respectively. The long-term stability was established in human plasma for 346 days at −70 °C. The validation method details were published internally and stored within Insmed’s internal document repository.
# Descriptive statistics for continuous variables were calculated. Categorical variables were summarized by counts and by percentage of participants in the corresponding categories. No formal hypothesis was tested. Changes from baseline values were calculated and presented for both safety and efficacy data at each visit, including the percent change from baseline. PK parameters for brensocatib were assessed using noncompartmental analysis via Phoenix® WinNonlin® version 8.2 or later. SAS version 9.4 or higher was employed to prepare PK outputs.
# Analysis of dose dependency for brensocatib Cmax, AUC0–24, and area under the concentration–time curve from time 0 to last measurable concentration (AUClast) after single-dose administration and at steady state (day 28) were performed using a power law model. Dose normalization of Cmax, AUC0–24, and AUClast was performed only when a linear and dose-dependent trend was observed.
# [2] = system: cathepsin G (CatG); assay: Active CatG in blood (white blood cell pellets) of adults with CF; type: in vivo, human; conditions: for CatG, median % reduction relative to baseline: Blood, day 29
# Description: Blood PD samples were collected at screening; predose on days 1, 2, 14, 28, and 29; and at the follow-up visit (day 35). The samples were analyzed at an external service provider to determine the concentrations of active NE, PR3, and CatG in white blood cell pellets using validated enzymatic methods with quantification limits of 87.9 ng/mL for NE and PR3 and 70.3 ng/mL for CatG. The fit-for-purpose methods details were published internally and stored within Insmed’s document repository.
# If a participant experienced an intercurrent event, defined as use of antibiotics during an acute event that could influence NSP levels, the data were not included in the PD analysis. In assessing treatment-emergent adverse events (TEAEs), the “while-on-treatment” strategy was implemented, which encompassed the 28-day period following the final dose of study drug. With this strategy, data collected prior to the occurrence of the intercurrent event, that is, to discontinuation of brensocatib, were included in the analysis.
# [3] = system: NSP activity (NE, CatG, PR3); assay: Exposure-response of NSP activity reduction (LOESS regression); type: in vivo, human; conditions: particularly in blood
# Description: The NSP activity reduction reached a saturation point at approximately 25 mg, as indicated by the plateau of the associated PK measures. The sensitivity of reduction for brensocatib was greatest for CatG, followed by NE, and PR3 (Fig. 6).
# [4] = system: neutrophil elastase (NE); parameters: method as in earlier work; conditions: Healthy adults, cited from earlier work
# [5] = system: neutrophil elastase (NE); parameters: method as in PMID 32897034; conditions: NCFBE, cited from earlier work
# [6] = system: P-glycoprotein (P-gp); parameters: method as in PMID 35411669; conditions: cited from earlier work
# [7] = system: breast cancer resistance protein (BCRP); parameters: method as in PMID 35411669; conditions: cited from earlier work
# [8] = 10 mg QD, Day 28, n = 8, mean (CV%)
# [9] = 25 mg QD, Day 28, n = 7, mean (CV%)
# [10] = 40 mg QD, Day 28, n = 8, mean (CV%)
compound,measurement,setting,value
Cn1c(=O)oc2ccc(-c3ccc(C[C@@H](C#N)NC(=O)[C@@H]4CNCCCO4)cc3)cc21 [Brensocatib],AUC(0-t),"[1]; 25 mg, 25 mg QD, Day 28, n = 7, mean (CV%), read-out: AUClast",8.93 µg·h/mL
same,Cmax,"[1]; 25 mg, 25 mg QD, Day 28, n = 7, mean (CV%), read-out: Cmax",0.249 µg/mL
same,AUC(0-t),"[1]; 40 mg, 40 mg QD, Day 1, n = 8, mean (CV%), read-out: AUC0–24",3.69 µg·h/mL
same,AUC(0-t),"[1]; 40 mg, 40 mg QD, Day 1, n = 8, mean (CV%), read-out: AUClast",3.69 µg·h/mL
same,Cmax,"[1]; 40 mg, 40 mg QD, Day 1, n = 8, mean (CV%), read-out: Cmax",0.342 µg/mL
same,AUC(0-t),"[1]; 40 mg, 40 mg QD, Day 28, n = 8, mean (CV%), read-out: AUC0–24",6.32 µg·h/mL
same,AUC(0-t),"[1]; 40 mg, 40 mg QD, Day 28, n = 8, mean (CV%), read-out: AUClast",15.3 µg·h/mL
same,Cmax,"[1]; 40 mg, 40 mg QD, Day 28, n = 8, mean (CV%), read-out: Cmax",0.49 µg/mL
same,AUC(0-t),"[1]; day 1, CFTR modulator stratum, 10-40 mg QD, read-out: mean AUC0–24 across brensocatib dose groups",0.798 to 4.12 µg·h/mL
same,AUC(0-t),"[1]; day 1, CFTR modulator stratum, 10-40 mg QD, read-out: mean AUClast across brensocatib dose groups",0.798 to 4.12 µg·h/mL
same,Cmax,"[1]; day 1, CFTR modulator stratum, 10-40 mg QD, read-out: mean Cmax across brensocatib dose groups",0.0609 to 0.365 µg/mL
same,AUC(0-t),"[1]; day 1, non-CFTR modulator stratum, 10-40 mg QD, read-out: mean AUC0–24 across brensocatib dose groups",1.12 to 2.4 µg·h/mL
same,AUC(0-t),"[1]; day 1, non-CFTR modulator stratum, 10-40 mg QD, read-out: mean AUClast across brensocatib dose groups",1.12 to 2.4 µg·h/mL
same,Cmax,"[1]; day 1, non-CFTR modulator stratum, 10-40 mg QD, read-out: mean Cmax across brensocatib dose groups",0.0864 to 0.274 µg/mL
same,AUC(0-t),"[1]; day 28, CFTR modulator stratum, 10-40 mg QD, read-out: mean AUC0–24 across brensocatib dose groups",1.08 to 7.36 µg·h/mL
same,AUC(0-t),"[1]; day 28, CFTR modulator stratum, 10-40 mg QD, read-out: mean AUClast across brensocatib dose groups",2.44 to 17.7 µg·h/mL
same,Cmax,"[1]; day 28, CFTR modulator stratum, 10-40 mg QD, read-out: mean Cmax across brensocatib dose groups",0.092 to 0.538 µg/mL
same,AUC(0-t),"[1]; day 28, non-CFTR modulator stratum, 10-40 mg QD, read-out: mean AUC0–24 across brensocatib dose groups",1.19 to 3.74 µg·h/mL
same,AUC(0-t),"[1]; day 28, non-CFTR modulator stratum, 10-40 mg QD, read-out: mean AUClast across brensocatib dose groups",2.21 to 9.54 µg·h/mL
same,Cmax,"[1]; day 28, non-CFTR modulator stratum, 10-40 mg QD, read-out: mean Cmax across brensocatib dose groups",0.0843 to 0.348 µg/mL
same,AUC(0-inf),[1]; [8],2.43 µg·h/mL
same,Vd/F,[1]; [8],423 L
same,half-life,"[1]; 10 mg QD, Day 28, n = 8, mean (CV%), read-out: t1/2 (converted)",30 h
same,Tmax,"[1]; 10 mg QD, Day 28, n = 8, median (range), read-out: Tmax",1.9 h
same,AUC(0-inf),[1]; [9],9.3 µg·h/mL
same,Vd/F,[1]; [9],332 L
same,half-life,"[1]; 25 mg QD, Day 28, n = 7, mean (CV%), read-out: t1/2 (converted)",33.1 h
same,AUC(0-inf),[1]; [10],16.2 µg·h/mL
same,Vd/F,[1]; [10],398 L
same,half-life,"[1]; 40 mg QD, Day 28, n = 8, mean (CV%), read-out: t1/2 (converted)",38.5 h
same,Tmax,"[1]; day 1 (after the first dose) and day 28 (steady state), across doses, read-out: median Tmax postdose",1.5 to 2 h
same,half-life,"[1]; range over CFTR modulator and non-CFTR modulator strata, read-out: elimination t1/2",24.7 to 49.5 h
same,"CatG, median % reduction relative to baseline","[2]; 10 mg QD, n = 6",75.1 (n = 6) %
same,"CatG, median % reduction relative to baseline","[2]; 25 mg QD, n = 7",84.9 (n = 7) %
same,"CatG, median % reduction relative to baseline","[2]; 40 mg QD, n = 7",91.3 (n = 7) %
same,median percent reduction of CatG activity in blood,[2]; in all doses of brensocatib,75–91%
same,dose at which NSP activity reduction reached a saturation point,[3],approximately 25 mg
same,Median % reduction of NE activity in the blood,"[4]; 10 mg, n = 6",34.8 (n = 6) %
same,Median % reduction of NE activity in the blood,"[4]; 25 mg, n = 7",42.6 (n = 7) %
same,Median % reduction of NE activity in the blood,"[4]; 40 mg, n = 7",55.1 (n = 7) %
same,Median % reduction of NE activity in the blood,"[5]; 10 mg, n = 38",30.9% and 30.9 (n = 38) %
same,Median % reduction of NE activity in the blood,"[5]; 25 mg, n = 45",66.5% and 66.5 (n = 45) %
same,substrate status,[6],substrate
same,substrate status,[7],substrate
